Experimental data published in EP0415456A2, “Xanthine compounds” (priority 1989, dated 1991).

Columns and labels:
[1] = system: male dd-strain mice; experiment: acute toxicity test; format: in vivo
Method: […]. The Minimum lethal dose (MLD) of the compounds was determined by observing whether or not the mice were alive after 7 days of the administration.

[2] = molecular target: T1, Adenosine A₁ Receptor (Cavia porcellus, UniProt P47745); experiment: Adenosine A1 receptor binding (3H-CHA binding); design: species or system guinea pig; settings: for Ratio of Ki Values [A₂/A₁]: A₂ Ki (rat corpus striatum) / A₁ Ki (guinea pig cerebrum); for Ki: calculated from Cheng-Prusoff's equation, ³H-CHA; for Ki / inhibition at 100 µM / inhibition at 10 µM: guinea pig cerebrum; for inhibition at 100 µM: concentration of tested compound 10⁻⁴ M; for inhibition at 100 µM / inhibition at 10 µM: ³H-CHA 1.1 nM; for inhibition at 10 µM: concentration of tested compound 10⁻⁵ M
T1 construct: from tissue; host or cells: guinea pig cerebrum membrane preparation
T1 sequence (P47745 1-326): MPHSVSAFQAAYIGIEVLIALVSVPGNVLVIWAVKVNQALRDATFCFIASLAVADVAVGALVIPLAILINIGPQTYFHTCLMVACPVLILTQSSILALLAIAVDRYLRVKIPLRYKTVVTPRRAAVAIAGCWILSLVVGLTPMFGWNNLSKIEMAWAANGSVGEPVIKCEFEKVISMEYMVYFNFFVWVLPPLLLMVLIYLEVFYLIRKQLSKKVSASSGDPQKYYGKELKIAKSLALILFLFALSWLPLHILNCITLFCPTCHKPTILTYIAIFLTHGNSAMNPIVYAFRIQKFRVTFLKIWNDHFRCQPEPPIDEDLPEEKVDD
Method: Cerebrum of a guinea pig was suspended into ice cooled 50 mM tris hydroxymethyl aminomethane hydrochloride (Tris HCl) buffer (pH = 7.7), by using Polytron homogenizer (manufactured by Kinematica Co.). The suspension was centrifuged (50,000 x g, 10 minutes), and the precipitate was resuspended by adding the same volume of 50 mM Tris HCl buffer. The suspension was centrifuged under the same conditions, and the precipitate obtained was suspended once again by adding 10 volumes of 50 mM Tris HCl. The tissue suspension was incubated at 37°C for 30 minutes in the presence of 0.02 units/mg tissue of adenosine deaminase (manufactured by Sigma Co.). The resulting tissue suspension was recentrifuged (50,000 x g, 10 minutes), and 50 mM Tris HCl was added to the precipitate to adjust the concentration of tissue to 10 mg (wet weight)/mℓ.
The mixture was incubated at 25°C for 90 minutes, and the resulting reaction was stopped by rapid vacuum filtration through a glass fiber filter (GF/C manufactured by Whatman Co.) followed by immediately washing three times with 5 mℓ each of ice cold 50 mM Tris HCl buffer. […] Its radioactivity was then determined by a scintillation counter (manufactured by Packard Instrument Co.).
The inhibition rate of the test compounds against the binding of A₁ […] (³H-CHA binding) was calculated from the following equation: [formula]
• 1. […] The inhibition constant (Ki value) shown in the table was calculated from Cheng-Prusoff's equation.

[3] = molecular target: T2, A₂ receptor (Rattus norvegicus, UniProt P30543); experiment: Adenosine A2 receptor binding (3H-NECA binding); settings: for inhibition at 10 µM / inhibition at 100 µM: read-out: A₂ Receptor Inhibition (%); for Ki: ³H-NECA with CPA, rat corpus striatum, read-out: A₂ Receptor Ki
T2 construct: A precipitate was prepared from rat corpus striatum; from tissue; host or cells: rat corpus striatum membrane preparation
Method: A precipitate was prepared from rat corpus striatum in a similar manner as in 1) above. The precipitate was suspended by adding a 50 mM Tris HCl buffer containing 10 mM magnesium chloride and 0.02 unit/mg (tissue) of adenosine deaminase (manufactured by Sigma Co.) to adjust the concentration of tissue to 5 mg (wet weight)/mℓ.
The mixture was incubated at 25°C within 120 minutes. The resulting mixture was treated in the same manner as in 1) above to determine its radioactivity.
The inhibition rate of the test compound against the binding of A₂ receptor (³H-NECA binding) was calculated from the following equation: [formula]

[4] = system: Wistar rats; experiment: diuretic effect; format: in vivo; settings: 25 mg/kg oral, urine collected for 6 hours; for Increase in K⁺ excretion (%) / Increase in Na⁺excretion (%) / Increase in Urine (%): relative to control; for Na⁺/K⁺: relative value of control (control 1.00)
Method: Wistar rats (male: 150 - 300 g) were starved for 18 hours prior to the administration of the test compounds. […] Urine was collected for 6 hours after the administration. Urine volume was measured and the electrolytes (Na+ and K+) in the urine were determined with a flame photome[…], Hitachi Ltd., Japan). All parameters are expressed as relative values of control.

[5] = system: glycerol-induced renal failure model; experiment: renal-protecting effect (glycerol-induced renal failure model); format: in vivo; settings: male Wistar rats; for suppression of increases of the serum creatinine and of urine-nitrogen: 0.01 - 10 mg/kg i.p., 24 hours after 50% glycerol s.c. (p < 0.05); for pathological examination of removed kidneys: state of kidneys: i.p., left kidney removed 24 hours after 50% glycerol s.c.
Method: A renal failure is a state wherein the renal function is lowered and the homeostasis of a body fluid can be no more maintained. It is known that an acute renal failure characteristic of uriniferous tubule disorder is caused by subcutaneous or intramuscular injection of glycerol to rats [Can. J. Physiol.
Male Wistar rats were kept deprived or water for 18 hours, and served for the test. A test compound was intraperitoneally administered to the rats (dosage: 1 mℓ/kg) and the rats were anesthetized with ether and 50% glycerol was subcutaneously administered (dosage: 0.8mℓ/100g) to the rats, pinching the dorsal skin. Twenty four hours after the administration of glycerol, the rats were anesthetized with ether and 5 mℓ of blood were collected from the abdominal aorta. The collected blood was allowed to stand for 30 minutes or longer and then centrifuged at 3,000 rpm for 10 minutes, and the amounts of the serum creatinine and urine-nitrogen (UN) contained in the serum were determined by auto analyzer (Olympus AU510) or measured by a creatinine test Wako (Jaffé method) and UN Test Wako (diacetylmonooxime direct method). Both are manufactured by Wako Pure Chemicals Co.
On the other hand, the left kidneys of the blood-sampled rats were removed and placed in formalin-filled vial bottles, and used as samples for the pathological examination.

[6] = system: zig-zag strips of the trachea; experiment: effects on passive Schultz-Dale reaction (antigen-induced contraction of sensitized trachea strips); design: species or system guinea pigs; settings: Cavia porcellus; concentration to produce 50% relaxation of EWA (1µg/mℓ)-contracted trachea strips of passively sensitized guinea pigs; read-out: Passive S-D Reaction IC₅₀
Method: After 24 hours, the guinea pigs were stunned and exsanguinated, and then trachea were removed. The zig-zag strips of the trachea were prepared by the method of Emmerson, et al. [J. Pharm. […] The strips were suspended in Krebs-Henseleit solution at 37°C […] Antigen (EWA) was then introduced in the solution (final concentration; 1μg/ml), and the contraction was measured by […] After the contraction reached stable plateau, the compounds were cumulatively added in order to get concentration-relaxation curves. […]

T2 sequence (P30543 whole entry): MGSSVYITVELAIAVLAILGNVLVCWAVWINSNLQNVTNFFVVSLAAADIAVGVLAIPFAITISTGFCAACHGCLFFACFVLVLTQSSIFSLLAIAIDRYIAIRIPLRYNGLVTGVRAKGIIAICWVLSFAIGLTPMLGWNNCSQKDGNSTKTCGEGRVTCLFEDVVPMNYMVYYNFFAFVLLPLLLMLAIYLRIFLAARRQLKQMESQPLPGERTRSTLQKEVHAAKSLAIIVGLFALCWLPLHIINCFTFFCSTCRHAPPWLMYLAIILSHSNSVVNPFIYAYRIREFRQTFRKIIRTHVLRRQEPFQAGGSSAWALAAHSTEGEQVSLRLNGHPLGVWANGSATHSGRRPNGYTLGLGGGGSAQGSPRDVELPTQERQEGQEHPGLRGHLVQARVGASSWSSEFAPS

CCCn1c(=O)c2[nH]c([C@H]3C[C@@H]4C=C[C@@H]3C4)nc2n(CCC)c1=O (relative stereo) [Compound 1, 8-[(1R*,4S*,5S*)-2-Bicyclo[2.2.1]hepten-5-yl]-1,3-dipropylxanthine]
Minimum lethal dose (MLD) ([1]; mouse, in vivo, 10080 min): more than 300 mg/kg
Ratio of Ki Values [A₂/A₁] [2]: 92.7
Ki [2]: 5.5 nM
inhibition at 100 µM [2]: 99%
inhibition at 10 µM [2]: 99%
inhibition at 10 µM [3]: 88%
inhibition at 100 µM [3]: 97%
Ki [3]: 510 nM
Increase in K⁺ excretion (%) [4]: 36%
Increase in Na⁺excretion (%) [4]: 73%
Increase in Urine (%) [4]: 106%
Na⁺/K⁺ [4]: 1.27

CCCn1c(=O)c2[nH]c([C@H]3C[C@H]4CC[C@@H]3C4)nc2n(CCC)c1=O (relative stereo) [Compound 3, 8-[(1R*,2S*,5S*)-Bicyclo[2,2,1]heptan-2-yl]-1,3-dipropylxanthine]
Minimum lethal dose (MLD) ([1]; mouse, in vivo, 10080 min): more than 300 mg/kg
Ratio of Ki Values [A₂/A₁] [2]: 75.0
Ki [2]: 4.4 nM
inhibition at 100 µM [2]: 100%
inhibition at 10 µM [2]: 100%
inhibition at 10 µM [3]: 83%
inhibition at 100 µM [3]: 90%
Ki [3]: 330 nM
Increase in K⁺ excretion (%) [4]: 29%
Increase in Na⁺excretion (%) [4]: 137%
Increase in Urine (%) [4]: 154%
Na⁺/K⁺ [4]: 1.84

CCCn1c(=O)c2[nH]c([C@@H]3CC[C@H]4CCC[C@H]43)nc2n(CCC)c1=O (relative stereo) [Compound 5, 8-[(1R*,2R*,5R*)-Bicyclo[3.3.0]octan-2-yl]-1,3-dipropylxanthine]
Minimum lethal dose (MLD) ([1]; mouse, in vivo, 10080 min): more than 300 mg/kg
Ratio of Ki Values [A₂/A₁] [2]: 86.8
Ki [2]: 3.8 nM
inhibition at 100 µM [2]: 99%
inhibition at 10 µM [2]: 99%
inhibition at 10 µM [3]: 91%
inhibition at 100 µM [3]: 99%
Ki [3]: 330 nM
Increase in K⁺ excretion (%) [4]: 32%
Increase in Na⁺excretion (%) [4]: 109%
Increase in Urine (%) [4]: 88%
Na⁺/K⁺ [4]: 1.58

CCCn1c(=O)c2c(nc([C@H]3C[C@@H]4C=C[C@@H]3C4)n2C)n(CCC)c1=O (relative stereo) [Compound 17, 8-[(1R*,4S*, 5S*)-2-Bicyclo[2.2.1]hepten-5-yl]-1,3-dipropyl-7-methylxanthine]
Minimum lethal dose (MLD) ([1]; mouse, in vivo, 10080 min): more than 300 mg/kg
Increase in K⁺ excretion (%) [4]: 51%
Increase in Na⁺excretion (%) [4]: 107%
Increase in Urine (%) [4]: 155%
Na⁺/K⁺ [4]: 1.37
suppression of increases of the serum creatinine and of urine-nitrogen [5]: significantly suppressed
pathological examination of removed kidneys: state of kidneys [5]: significantly improved

CCCn1c(=O)[nH]c(=O)c2[nH]c([C@@H]3CC[C@H]4CCC[C@H]43)nc21 (relative stereo) [Compound 23, 8-[(1R*,2R*,5R*)-Bicyclo[3.3.0]octan-2-yl]-3-propylxanthine]
Minimum lethal dose (MLD) ([1]; 300 mg/kg orally administered, male dd-strain mice, observed 7 days after administration): more than 300 mg/kg
suppression of increases of the serum creatinine and of urine-nitrogen [5]: significantly suppressed
pathological examination of removed kidneys: state of kidneys [5]: significantly improved

CCCn1c(=O)c2[nH]c(C34CC5CC(CC(C5)C3)C4)nc2n(CCC)c1=O [Compound 13, 8-(Adamantan-1-yl)-1,3-dipropylxanthine]
Minimum lethal dose (MLD) ([1]; mouse, in vivo, 10080 min): more than 300 mg/kg
Ki [2]: 7.8 nM
inhibition at 100 µM [2]: 100%
inhibition at 10 µM [2]: 100%
inhibition at 10 µM [3]: 63%
inhibition at 100 µM [3]: 71%
Increase in K⁺ excretion (%) [4]: 37%
Increase in Na⁺excretion (%) [4]: 186%
Increase in Urine (%) [4]: 129%
Na⁺/K⁺ [4]: 2.09
suppression of increases of the serum creatinine and of urine-nitrogen [5]: significantly suppressed
pathological examination of removed kidneys: state of kidneys [5]: significantly improved

CCCn1c(=O)c2[nH]c(C34CC5CC(CC3C5)C4)nc2n(CCC)c1=O [Compound 14, 8-(Noradamantan-3-yl)-1,3-dipropylxanthine]
Minimum lethal dose (MLD) ([1]; mouse, in vivo, 10080 min): more than 300 mg/kg
inhibition at 100 µM [2]: 101%
inhibition at 10 µM [2]: 101%
inhibition at 10 µM [3]: 63%
inhibition at 100 µM [3]: 77%
Ki [3]: 380 nM
Increase in K⁺ excretion (%) [4]: 68%
Increase in Na⁺excretion (%) [4]: 244%
Increase in Urine (%) [4]: 315%
Na⁺/K⁺ [4]: 2.05
suppression of increases of the serum creatinine and of urine-nitrogen [5]: significantly suppressed
pathological examination of removed kidneys: state of kidneys [5]: significantly improved

CCCn1c(=O)[nH]c(=O)c2[nH]c(C34CC5CC(CC3C5)C4)nc21 [Compound 25, 8-(Noradamantan-3-yl)-3-propylxanthine]
suppression of increases of the serum creatinine and of urine-nitrogen [5]: significantly suppressed
pathological examination of removed kidneys: state of kidneys [5]: significantly improved
IC50 [6]: 17300 nM

CCCn1c(=O)[nH]c(=S)c2[nH]c(C34CC5CC(CC3C5)C4)nc21 [Compound 26, 8-(Noradamantan-3-yl)-3-propyl-6-thioxanthine]
IC50 [6]: 22700 nM

CCCn1c(=O)c2nc(C34CC5CC(CC3C5)C4)[nH]c2n(CCC)c1=S [Compound 31, 8-(Noradamantan-3-yl)-1,3-dipropyl-2-thioxanthine]
Minimum lethal dose (MLD) ([1]; mouse, in vivo, 10080 min): more than 300 mg/kg
Increase in K⁺ excretion (%) [4]: 56%
Increase in Na⁺excretion (%) [4]: 126%
Increase in Urine (%) [4]: 115%
Na⁺/K⁺ [4]: 1.44
suppression of increases of the serum creatinine and of urine-nitrogen [5]: significantly suppressed
pathological examination of removed kidneys: state of kidneys [5]: significantly improved

CCCn1c(=S)c2[nH]c(C34CC5CC(CC3C5)C4)nc2n(CCC)c1=S [Compound 33, 8-(Noradamantan-3-yl)-1,3-dipropyl-2,6-dithioxanthine]
Minimum lethal dose (MLD) ([1]; mouse, in vivo, 10080 min): more than 300 mg/kg
Increase in K⁺ excretion (%) [4]: 40%
Increase in Na⁺excretion (%) [4]: 105%
Increase in Urine (%) [4]: 99%
Na⁺/K⁺ [4]: 1.47
